{"source": "patent US7928057B2", "about": "“Peptide for inhibition of calcineurin, nucleic acid, antibody, and diagnostic and therapeutic methods of use” (Julius-Maximilians-Universitaet Wuerzburg, priority 2006, dated 2011)", "key": {"[1]": {"biological_target": "T1, CRM1 (Rattus norvegicus, UniProt Q80U96)", "T1 construct": "endogenous in cells; host or cells: cardiomyocytes (neonatal rat)", "T1 sequence (Q80U96 whole entry)": "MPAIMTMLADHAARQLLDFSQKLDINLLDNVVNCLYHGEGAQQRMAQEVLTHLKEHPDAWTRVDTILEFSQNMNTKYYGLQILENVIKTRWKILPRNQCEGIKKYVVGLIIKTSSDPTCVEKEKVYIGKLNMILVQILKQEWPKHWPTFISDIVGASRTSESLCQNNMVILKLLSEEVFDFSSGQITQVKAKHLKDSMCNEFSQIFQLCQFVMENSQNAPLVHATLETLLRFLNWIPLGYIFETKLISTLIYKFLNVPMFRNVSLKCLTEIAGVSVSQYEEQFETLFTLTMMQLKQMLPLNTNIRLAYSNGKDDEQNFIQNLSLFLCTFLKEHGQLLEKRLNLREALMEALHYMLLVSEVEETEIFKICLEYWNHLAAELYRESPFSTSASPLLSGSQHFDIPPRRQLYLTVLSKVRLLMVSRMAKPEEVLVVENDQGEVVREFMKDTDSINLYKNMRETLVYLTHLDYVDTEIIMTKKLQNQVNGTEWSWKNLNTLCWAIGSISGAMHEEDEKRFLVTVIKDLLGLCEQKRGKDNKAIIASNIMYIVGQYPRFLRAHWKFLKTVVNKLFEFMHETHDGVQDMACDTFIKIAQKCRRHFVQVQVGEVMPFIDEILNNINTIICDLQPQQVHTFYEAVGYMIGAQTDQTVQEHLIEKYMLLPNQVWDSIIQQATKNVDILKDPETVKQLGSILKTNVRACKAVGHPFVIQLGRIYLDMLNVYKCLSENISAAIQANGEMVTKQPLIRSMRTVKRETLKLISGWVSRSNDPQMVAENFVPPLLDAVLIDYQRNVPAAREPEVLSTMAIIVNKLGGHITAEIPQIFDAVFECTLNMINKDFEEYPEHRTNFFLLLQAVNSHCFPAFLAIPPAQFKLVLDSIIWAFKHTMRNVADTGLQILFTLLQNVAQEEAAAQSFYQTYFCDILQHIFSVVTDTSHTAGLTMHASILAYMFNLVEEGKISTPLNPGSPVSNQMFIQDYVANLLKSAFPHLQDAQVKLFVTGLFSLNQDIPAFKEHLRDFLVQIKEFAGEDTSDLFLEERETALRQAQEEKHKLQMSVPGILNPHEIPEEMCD", "test": "CRM1 mediated nuclear export of CnA in cardiomyocytes", "assay_type": "cell-based", "conditions": "full length CnA imported by Ang II stimulation, calpeptin added", "experimental": "To address whether CnA nuclear export is mediated by CRM1, experiments using the CRM1 specific inhibitor, leptomycin B (LMB), were performed. Agonist-dependent nuclear import of full length CnA was achieved by Ang II stimulation. Calpeptin was added to prevent proteolysis of CnA."}, "[2]": {"test_system": "cJUN, ERK 1/2, GATA4, NFAT2", "test": "Specificity: nuclear accumulation of other transcription factors in phenylephrin stimulated cardiomyocytes", "assay_type": "cell-based", "conditions": "cardiomyocytes stimulated with phenylephrin; FIG. 9", "description": "The inventor also analyzed the specificity with the peptide (AAVALLPAVLAALAA KQECKIKYSERV SEQ ID NO: 5). In theory this peptide that mimics the Calcineurin NLS saturates the binding site on importin and therefore might completely block importin function for other transcription factors as well."}, "[3]": {"biological_target": "T2, calcineurin (CnA)/importin β1 interaction (Homo sapiens, UniProt Q14974)", "T2 construct": "expressed in transfected cells; host or cells: HeLa cells (importin β1 endogenous, EGFP-CnAβ transfected)", "T2 sequence (Q14974 whole entry)": "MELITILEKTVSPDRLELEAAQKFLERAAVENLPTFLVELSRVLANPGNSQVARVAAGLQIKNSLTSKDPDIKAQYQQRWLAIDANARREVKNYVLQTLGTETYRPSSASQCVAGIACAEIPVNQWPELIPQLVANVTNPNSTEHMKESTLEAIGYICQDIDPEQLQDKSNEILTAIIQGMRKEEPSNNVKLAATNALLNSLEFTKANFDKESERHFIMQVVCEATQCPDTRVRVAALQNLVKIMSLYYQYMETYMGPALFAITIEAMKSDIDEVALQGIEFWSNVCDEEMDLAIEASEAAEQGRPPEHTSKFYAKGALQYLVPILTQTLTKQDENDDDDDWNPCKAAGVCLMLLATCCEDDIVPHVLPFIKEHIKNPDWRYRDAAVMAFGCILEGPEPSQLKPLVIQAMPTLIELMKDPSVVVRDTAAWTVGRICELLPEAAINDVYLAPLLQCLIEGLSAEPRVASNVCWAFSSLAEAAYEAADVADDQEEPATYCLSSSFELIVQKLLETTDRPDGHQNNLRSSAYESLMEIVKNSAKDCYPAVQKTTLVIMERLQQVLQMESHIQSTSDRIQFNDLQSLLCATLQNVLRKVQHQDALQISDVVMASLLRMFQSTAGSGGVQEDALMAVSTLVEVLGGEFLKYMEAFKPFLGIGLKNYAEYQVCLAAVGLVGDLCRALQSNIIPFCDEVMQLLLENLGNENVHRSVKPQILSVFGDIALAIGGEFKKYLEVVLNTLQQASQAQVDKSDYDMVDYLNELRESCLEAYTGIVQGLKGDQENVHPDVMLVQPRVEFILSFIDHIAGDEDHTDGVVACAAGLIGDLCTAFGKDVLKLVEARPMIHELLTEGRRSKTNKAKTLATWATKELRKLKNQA", "test": "Peptide competition / co-immunoprecipitation of calcineurin with importin β1", "assay_type": "binding", "conditions": "HeLa cells transfected with GFP-tagged CnA mutants (FIG. 3)", "description": "Immunoprecipitation of the CnA/importin complexes was performed with importin β1 antibodies, detection with a GFP antibody.\nEpitope-tagged derivatives of calcineurin Aβ containing amino-terminal EGFP were generated using the mammalian expression vector pEGFP-C3 (BD Bioscience Clontech). For cloning of calcineurin mutants the mammalian expression vector pCMV-Sport6 containing the directionally cloned cDNA of human calcineurin Aβ was used (Invitrogen). The following mutants have been amplified by PCR, digested with XbaI and XhoI and cloned into the XbaI and XhoI sites of the described plasmid: CnAβ(full), CnAβ 1-415, CnAβ 1-425, CnAβ 1-445, CnAβ 1-465, CnAβ 1-485 and CnAβ 171-190. For these truncated mutants different reverse oligonucleotides were designed with subsequent N-terminal binding sites. The forward primer, binding at the N-terminus of calcineurin, was identical for each plasmid apart from the CnA(171-190) mutant. For this derivative primers are bound upstream of aa 171 and downstream of aa 190, respectively. Two internal mutants CnAβ(Δ420-434) and CnAβ(Δ420-445) were cloned into the XbaI and XhoI sites of pEGFP-C3 using a two step strategy. […]\n(§1) The subcellular distribution of calcineurin was determined by immunofluorescence stainings. The primary antibodies used in fluorescence staining are described elsewhere (Burkhard et al., 2005). […]"}, "[4]": {"test_system": "nuclear import of calcineurin (CnA) via importin β1", "test": "Peptide competition assay: nuclear import of calcineurin in cardiomyocytes", "assay_type": "cell-based", "conditions": "neonatal rat cardiomyocytes stimulated with Ang II; peptide added to the medium (1 μM)", "description": "(§2) Neonatal rat cardiomyocytes were incubated with a peptide mimicking the NLS sequence of CnA (SEQ ID NO:2) and stimulated with Ang II ([…]). […] Nuclear import of CnA was therefore prevented. Control experiments were performed with a non-sense peptide SEQ ID NO: 3).\n(§3) Neonatal rat cardiomyocytes of Wistar rats were isolated as described previously (Ritter et al., 2003). Cells were resuspended in minimum essential medium/1% FCS. After preplating, the cardiomyocyte containing supernatant was recovered, and cells were plated in minimum essential medium on 6-well plates at a density of 1×10^6 cells per well. The medium for cardiomyocytes contained 5-bromo-2′-deoxyuridine (0.1 mmol/L) to suppress fibroblast growth. Fibroblast contamination of cardiomyocyte cultures was between 4% and 7% as regularly determined by immunohistochemical staining for troponin T. HeLa cells were grown in DMEM/5% FCS (Sigma). 48 hours after preparation, cells were stimulated with 10 nmol/L angiotensin II (Ang II). Cells were harvested 24 hours after stimulation. Concentrations were as follows: Ang II: 10 μM, calpeptin: 10 μM, NLS peptide and control peptide: 1 μM, respectively.\nas §1"}, "[5]": {"test_system": "calcineurin (CnA)", "test": "CnA phosphatase activity (specific phosphosubstrate RII, Biomol kit)", "assay_type": "biochemical, rat", "conditions": "cardiomyocytes stimulated with Ang II (10 μM); n=8, p=not significant", "description": "as §3, with “48 hours after preparation, cells were stimulated with 10 nmol/L angiotensin II (Ang II). Cells were harvested 24 hours after stimulation. Concentrations were as follows: Ang II: 10 μM, calpeptin: 10 μM, NLS peptide and control peptide: 1 μM, respectively.” left out\nNF-ATc reporter plasmid comprised the II-2 promoter followed by luciferase. Luciferase activity was determined according to the manufacturer's protocol (Promega). CnA phosphatase activity was determined using a commercial kit (CnA kit assay, Biomol) that measures effect on a specific CnA phosphosubstrate. […]\nPhosphatase activity, transcriptional activity, protein synthesis, cell size and makers of myocardial hypertrophy in response to the peptide related inhibition of CnA nuclear import were examined. Phosphatase activity was assessed employing a specific substrate (RII) for can (Ritter et al., 2002). Cardiomyocytes were stimulated with Ang II (10 μM), and CnA phosphatase activity was measured in the presence of the NLS peptide or a non sense control peptide. […]"}, "[6]": {"test_system": "Ang II treated mice", "test": "Ang II (osmotic minipump) induced myocardial hypertrophy in mice", "assay_type": "in vivo", "conditions": "for dilation of the left ventricle (left ventricular end diastolic diameter, LVEDD): mice with implanted mini-osmotic pumps with AngII, FIG. 8; for development of myocardial hypertrophy in vivo (heart/body weight ratio, molecular markers, echocardiography): cyclic peptide 25 mg/kg body weight/day i.p.", "description": "For in vivo use the blocking peptide, that mimics the calcineurin nuclear localization signal (NLS) received a peptide extension to increase membrane permeability and was synthesised as a cyclic peptide to withstand proteolysis of N- and C-terminal proteases. This peptide was administered twice daily at a concentration of 25 mg/kg body weight/day by i.p. injections into mice. The mice were treated with implanted osmotic minipumps to release either angiotensin II or saline as control.\nThe inventor now extended his experiments to in vivo data."}, "[7]": {"test_system": "CnA/NF-ATc signalling pathway", "test": "NF-ATc luciferase reporter plasmid transcriptional activity", "assay_type": "cell-based, rat", "description": "as §3\nNF-ATc reporter plasmid comprised the II-2 promoter followed by luciferase. Luciferase activity was determined according to the manufacturer's protocol (Promega). CnA phosphatase activity was determined using a commercial kit (CnA kit assay, Biomol) that measures effect on a specific CnA phosphosubstrate. Free PO4 was indicated by a malachite green dye. The use of this kit has been described previously (Ritter et al., 2002).\n(§4) Phosphatase activity, transcriptional activity, protein synthesis, cell size and makers of myocardial hypertrophy in response to the peptide related inhibition of CnA nuclear import were examined. Phosphatase activity was assessed employing a specific substrate (RII) for can (Ritter et al., 2002). Cardiomyocytes were stimulated with Ang II (10 μM), and CnA phosphatase activity was measured in the presence of the NLS peptide or a non sense control peptide. […] Similarly, myocardial hypertrophy, as evidenced by protein synthesis (707±21% vs. 133±12%, n=8, p<0.05), cell size (1191±91 μm^2 vs. 728±65 μm^2, n=8, p<0.05) (FIG. 5B), and expression of brain natriuretic peptide (BNP) (163±11% vs. 88±8%, n=8, p<0.05) (FIG. 5C), were suppressed by the NLS peptide."}, "[8]": {"test_system": "neonatal rat cardiomyocytes", "test": "Markers of myocardial hypertrophy in Ang II stimulated cardiomyocytes (protein synthesis, cell size, BNP)", "assay_type": "cell-based", "conditions": "cardiomyocytes stimulated with Ang II (10 μM); n=8, p<0.05", "description": "as §2, §3, §4"}, "[9]": {"test_system": "NFAT Luciferase reporter", "test": "NFAT Luciferase reporter transgenic mice treated with angiotensin II", "assay_type": "in vivo"}, "[10]": {"test_system": "T cells", "test": "T cells stimulated with spleen dendritic cells (H3-thymidin incorporation)", "assay_type": "cell-based", "conditions": "T cells stimulated with spleen dendritic cells and simultaneously treated with peptide; FIG. 6", "description": "Bars indicate protein synthesis (H3-thymidin incorporation).\nThe inventor now extended the experiments to T-cells and to in vivo experiments in mice."}}, "note": "Entries after “also recorded” stand apart in the source; their conditions may differ. Where no end group is shown, it is not given here.", "data": [{"molecule": "CCC(=C/[C@H](C)C/C=C/C(C)=C/[C@@H](C)C(=O)[C@@H](C)[C@H](O)[C@@H](C)C/C(C)=C/C(=O)O)/C=C/[C@@H]1OC(=O)C=C[C@@H]1C", "note": "[LMB, leptomycin B]", "values": [{"measurement": "nuclear export of CnA", "setting": "[1]", "result": "suppressed nuclear export of CnA"}]}, {"molecule": "AAVALLPAVLAALAA KQECKIKYSERV (AAVALLPAVLAALAAKQECKIKYSERV; alternative nucl loc signal plus membrane anker) [SEQ ID NO: 5]", "values": [{"measurement": "nuclear accumulation/import of selected transcription factors (cJUN, ERK 1/2, GATA4, NFAT2)", "setting": "[2]", "result": "did not block import"}]}, {"molecule": "AAVALLPAVLLALLAAQECAIAYSEYV (control peptide and membrane anker) [non sense peptide used in control experiments, reference compound]", "values": [{"measurement": "calcineurin interaction/binding with importin β1", "setting": "[3]", "result": "did not interfere with the calcineurin/importin binding"}, {"measurement": "nuclear import (translocation) of CnA", "setting": "[4]", "result": "not inhibited"}, {"measurement": "total CnA phosphatase activity", "setting": "[5]", "result": "289±17", "unit": "%"}, {"measurement": "dilation of the left ventricle (left ventricular end diastolic diameter, LVEDD)", "setting": "[6]", "result": "did not prevent left ventricular dilation"}]}, {"molecule": "AAVALLPAVLLALLAKQECKIKYSERV (nuclear localisation signal and membrane anker) [NLS peptide]", "values": [{"measurement": "calcineurin interaction/binding with importin β1", "setting": "[3]", "result": "prevented CnA binding to importin β1; also recorded: abrogated the interaction of calcineurin and importin β1"}, {"measurement": "nuclear import (translocation) of CnA", "setting": "[4]", "result": "suppressed calcineurin nuclear import"}, {"measurement": "total CnA phosphatase activity", "setting": "[5]", "result": "273±11", "unit": "%"}, {"measurement": "transcriptional activity of the CnA/NF-ATc signalling pathway", "setting": "[7]; cardiomyocytes stimulated with Ang II (10 μM), n=8, p<0.05", "result": "123±8", "unit": "%"}, {"measurement": "transcriptional activity of calcineurin/NF-ATc (NF-ATc luciferase reporter plasmid), in words", "setting": "[7]; neonatal rat cardiomyocytes, Ang II, FIG. 5A bottom, FIG. 5D", "result": "dose dependent manner"}, {"measurement": "cell size", "setting": "[8]", "result": "728±65", "unit": "μm^2"}, {"measurement": "expression of brain natriuretic peptide (BNP)", "setting": "[8]", "result": "88±8", "unit": "%"}, {"measurement": "protein synthesis", "setting": "[8]", "result": "133±12", "unit": "%"}, {"measurement": "development of myocardial hypertrophy in vivo (heart/body weight ratio, molecular markers, echocardiography)", "setting": "[6]; Ang II minipump mice", "result": "able to suppress the development of myocardial hypertrophy in vivo"}, {"measurement": "f-MHC expression as molecular marker of hypertrophy", "setting": "[6]; mice treated with angiotensin for 4 weeks, FIG. 7B", "result": "prevented expression of this marker"}, {"measurement": "dilation of the left ventricle (left ventricular end diastolic diameter, LVEDD)", "setting": "[6]", "result": "dilation could prevented"}, {"measurement": "Luciferase activity", "setting": "[9]", "result": "suppressed Luciferase activity"}]}, {"molecule": "KQECKIKYSERV [SEQ ID NO: 2]", "values": [{"measurement": "toxic effect", "setting": "[7]; higher concentrations (>1 μM), values below background levels of untreated cardiomyocytes, FIG. 5D", "result": "toxic effect is possible"}]}, {"molecule": "blocking peptide: mimics the calcineurin NLS, with peptide extension to increase membrane permeability; synthesised as a cyclic peptide for in vivo use (AAVALLPAVLLALLAKQECKIKYSERV; also: synthesised as cyclic peptide, mode not given here)", "values": [{"measurement": "T cell protein synthesis (H3-thymidin incorporation) / activation of lymphocytes", "setting": "[10]", "result": "inhibited significantly; also recorded: significantly prevented activation of lymphocytes"}, {"measurement": "calcineurin entry into the nucleus in vivo", "setting": "[6]; Ang II minipump mice, cellular level", "result": "suppressed calcineurin entry into the nucleus"}, {"measurement": "development of myocardial hypertrophy in vivo (heart/body weight ratio, molecular markers, echocardiography)", "setting": "[6]; Ang II minipump mice", "result": "able to prevent the development of myocardial hypertrophy; also recorded: prevents myocardial hypertrophy"}, {"measurement": "heart weight", "setting": "[6]; mice treated with Ang II for 4 weeks, cyclic peptide with membrane permeability extension, 25 mg/kg body weight/day i.p. twice daily, FIG. 7A", "result": "prevented an increase in heart weight"}, {"measurement": "nuclear accumulation/import of selected transcription factors (cJUN, ERK 1/2, GATA4, NFAT2)", "setting": "[2]", "result": "did not prevent nuclear accumulation"}]}]}
